Legend:
[1] = test system: nitrification (soil Limburgerhof, microbial biomass); experiment: Inhibition of nitrification in soil incubation (NH4-N recovery and NO3-N formation); conditions: 14 days after treatment, 20° C.
Experimental: The soil is incubated at 20° C. for two weeks prior to the experiments to activate the microbial biomass. 1 ml test solution, containing the compounds of formula I in the appropriate concentration (usually 0.3 or 1% (w/w) of fertilized NH4—N), and 10 mg nitrogen in the form of ammoniumsulfate-N(NH4—N) is added to the soil and everything mixed well. Unfertilized controls received 1 ml pure water. Bottles are capped but loosely to allow air exchange. The bottles are then incubated at 20° C. for 0 and 14 days. For analysis, 300 ml of a 1% K2SO4-solution is added to the bottle containing the soil and shaken for 2 hours in a horizontal shaker at 150 rpm. Then the whole solution is filtered through a filter (Macherey-Nagel Filter MN 807%). Ammonium and nitrate content is then analyzed in the filtrate using an autoanalyzer. Ammonium was quantified via an indophenol blue dye at 660 nm, and nitrate via an azo dye at 540 nm. The nitrification inhibition is expressed as % of NH4—N recovery from fertilized NH4—N (100%) after subtraction of unfertilized control soil, and as % inhibition of NO3—N formation (% reduction of NO3^− production) according to the formula: [formula]

[2] = test system: nitrification (soil Limburgerhof, microbial biomass); experiment: Comparison of % NH4-N recovery in soil incubation, data pooled from different trials; conditions: average pooled from different trials
Experimental: Examples 2 and 3 were further tested with regard to Comparative Example 1 in terms of the % NH4—N recovery. 100 g Soil (soil Limburgerhof with pH(CaCl2) 6.8; 73% sand, 23% silt, 4% clay, which is classified according to FAO as a sandy loam) is filled into 500 ml plastic bottles and is moistened to 50% water holding capacity. The soil is incubated at 20° C. for two weeks prior to the experiments to activate the microbial biomass. 1 ml Test solution, containing the compounds of formula I or the comparative example in the appropriate concentration (0.3 or 1% (w/w) of fertilized NH4—N), and 10 mg nitrogen in the form of ammoniumsulfate-N(NH4—N) is added to the soil and everything mixed well. Unfertilized controls received 1 ml pure water. Bottles are capped but loosely to allow air exchange. The bottles are then incubated at 20° C. for 14 days. For analysis, 300 ml of a 1% K2SO4-solution is added to the bottle containing the soil and shaken for 2 hours in a horizontal shaker at 150 rpm. Then the whole solution is filtered through a filter (Macherey-Nagel Filter MN 807%). Ammonium content is then analyzed in the filtrate using an autoanalyzer. Ammonium was quantified via an indophenol blue dye at 660 nm. The nitrification inhibition is expressed as % of NH4—N recovery from fertilized NH4—N (100%) after subtraction of unfertilized control soil. For comparison of the % NH4—N recovery of the compounds of the invention, i.e. Examples 2 and 3, with comparative example 1 as shown below from different trials, the standard deviation of a common treatment of all trials with DMPP (3,4-dimethylpyrazole phosphate) was calculated. Based on this calculation the data from different trials can be pooled together to calculate an average % NH4—N recovery for the compounds of the invention and the comparative compound as shown below.

[3] = Stability (recovery experiment) of nitrification inhibitor on treated fertilizer granules; type: physicochemical; conditions: dose NI 1 % NH4N; for NI on fertilizer granules [%] after storage 4 weeks 20° C.: open beaker, 50% rH; for NI on fertilizer granules [%] initial: sample stored at -18° C.
Experimental: Examples 2 and 3 were further tested with regard to Comparative Example 1 in terms of their stability (recovery experiment)
Ammonium Sulphate Nitrate (ASN) fertilizer granules and Diammonium phosphate (DAP) fertilizer granules were treated with liquid preparations of the Nitrification Inhibitor (NI) of example 2 and 3 and Comparative Example 1.
For the recovery experiment, a small amount (˜10g) of each treated fertilizer sample was filled into a closed glass vial and stored at −18° C. Another 250 g of each treated fertilizer sample were filled into an open glass beaker and stored at 20° C. and 50% relative humidity (rH). After four weeks of storage, 50g of the samples stored at 20° C. and 50% rH were drawn from the bottom and analyzed by HPCL for NI content in comparison to the −18° C. sample. The recovery is given in % as ratio of the NI content of the 20° C. sample divided by the NI content of the −18° C. sample.

[4] = Volatility of prior-art nitrification inhibitor; type: physicochemical; conditions: statement in words on the prior-art compound
From the text: Sharma et al. (J P Sharma, H K Taneja, S S Tomar Pesticide Research Journal, 2006, 18(1), 7-11) inter alia discloses 3-ethoxy-5-methylpyrazole as nitrification inhibitor.

[5] = applied dose 0.3 wt.-% relative to NH4-N
[6] = applied dose 1.0 wt.-% relative to NH4-N

COc1cc(C)n(C(=O)C2CCOCC2)n1 [Example 4]
average inhibition % of NO3 DAT14 (n = 4) [1, 5]: 33%
average recovery % NH4-N DAT14 (n = 4) [1, 5]: 40%
average inhibition % of NO3 DAT14 (n = 4) [1, 6]: 82%
average recovery % NH4-N DAT14 (n = 4) [1, 6]: 66%

CCCCCCCOC(=O)n1nc(C)cc1OC [Example 1]
average inhibition % of NO3 DAT14 (n = 4) [1, 5]: 44%
average recovery % NH4-N DAT14 (n = 4) [1, 5]: 40%
average inhibition % of NO3 DAT14 (n = 4) [1, 6]: 82%
average recovery % NH4-N DAT14 (n = 4) [1, 6]: 68%

CCCCCCCOC(=O)n1nc(OC)cc1C [Example 2]
average inhibition % of NO3 DAT14 (n = 4) [1, 5]: 60%
average recovery % NH4-N DAT14 (n = 4) [1, 5]: 55%
average inhibition % of NO3 DAT14 (n = 4) [1, 6]: 89%
average recovery % NH4-N DAT14 (n = 4) [1, 6]: 66%
% NH4-N recovery after 14 days ([2]; 0.3 wt.-% relative to NH4-N): 47%
% NH4-N recovery after 14 days ([2]; 1 wt.-% relative to NH4-N): 58%
NI on fertilizer granules [%] after storage 4 weeks 20° C. ([3]; DAP fertilizer granules): 0.015%
NI on fertilizer granules [%] initial ([3]; DAP fertilizer granules): 0.023%

CCOc1cc(C)nn1CO [Comparative Example 1, reference compound]
% NH4-N recovery after 14 days ([2]; 0.3 wt.-% relative to NH4-N): 36%
% NH4-N recovery after 14 days ([2]; 1 wt.-% relative to NH4-N): 46%
NI on fertilizer granules [%] after storage 4 weeks 20° C. ([3]; ASN fertilizer granules): 0.000%
NI on fertilizer granules [%] initial ([3]; ASN fertilizer granules): 0.034%
NI on fertilizer granules [%] after storage 4 weeks 20° C. ([3]; DAP fertilizer granules): 0.057%
NI on fertilizer granules [%] initial ([3]; DAP fertilizer granules): 0.110%

CCOc1cc(C)[nH]n1 [3-ethoxy-5-methylpyrazole]
volatility [4]: high volatility

COc1cc(C)n(C(=O)c2cccc(F)c2)n1 [Example 5]
average inhibition % of NO3 DAT14 (n = 4) [1, 5]: 20%
average recovery % NH4-N DAT14 (n = 4) [1, 5]: 25%
average inhibition % of NO3 DAT14 (n = 4) [1, 6]: 50%
average recovery % NH4-N DAT14 (n = 4) [1, 6]: 39%

CCOC(=O)CC(=O)n1nc(OC)cc1C [Example 3]
average inhibition % of NO3 DAT14 (n = 4) [1, 5]: 60%
average recovery % NH4-N DAT14 (n = 4) [1, 5]: 49%
average inhibition % of NO3 DAT14 (n = 4) [1, 6]: 90%
average recovery % NH4-N DAT14 (n = 4) [1, 6]: 71%
% NH4-N recovery after 14 days ([2]; 0.3 wt.-% relative to NH4-N): 41%
% NH4-N recovery after 14 days ([2]; 1 wt.-% relative to NH4-N): 64%
NI on fertilizer granules [%] after storage 4 weeks 20° C. ([3]; ASN fertilizer granules): 0.113%
NI on fertilizer granules [%] initial ([3]; ASN fertilizer granules): 0.116%
NI on fertilizer granules [%] after storage 4 weeks 20° C. ([3]; DAP fertilizer granules): 0.044%
NI on fertilizer granules [%] initial ([3]; DAP fertilizer granules): 0.052%

— patent publication US20240270658A1, “Use of an N-Functionalized Alkoxy Pyrazole Compound as Nitrification Inhibitor” (BASF SE, priority 2021, published 2024)
